The values below come from ChEMBL document CHEMBL6092142, “Discovery and preclinical profile of YK-2168, a differentiated selective CDK9 inhibitor in clinical development” (Bioorg Med Chem Lett, 2024).

pIC50: −log10 of the molar value.

By pIC50 is commonly meant the IC50 on a negative log10 scale, so that one unit is a factor of ten. The Vd is the apparent volume that relates the amount in the body to the concentration in plasma or blood. Broadly, the clearance is a measure of how efficiently the substance is removed, as volume per time. A low value points to inefficient removal. Usually half-life stands for the time needed for the level to fall by half in the phase considered. A word on the AUC(0-t): it is the area under the concentration-time curve up to a stated or last time point. The low end stands for less exposure, the high end for more exposure.

The nature of data set [1]: Selectivity index, ratio of IC50 for inhibition of CDK1 (unknown origin) to IC50 for inhibition of CDK9 (unknown origin).
A short description of data set [2]: Selectivity index, ratio of IC50 for inhibition of CDK2 (unknown origin) to IC50 for inhibition of CDK9 (unknown origin).
In data set [3] the test system is MV4-11. Nature of the data set: Antiproliferative activity against human MV4-11 cells assessed as cell viability. It counts as functional, cell-based.
Data set [4] is described as follows: Volume of distribution in CD-1 mouse at 2 mg/kg, iv. It counts as ADME, organism-based. The settings on record: CD-1, mouse, in vivo, read-out: Vd.
Data set [5] in a line: Clearance in CD-1 mouse at 2 mg/kg, iv. It is filed as ADME, organism-based. As to conditions: in vivo.
The nature of data set [6]: Half life in CD-1 mouse at 2 mg/kg, iv. It is filed as ADME, organism-based. The settings on record: CD-1, mouse, in vivo.
The nature of data set [7]: AUC (0 to 24 hrs) in CD-1 mouse at 2 mg/kg, iv. It is filed as ADME, organism-based. The settings on record: CD-1, mouse, in vivo.

In the case of `COCC(C)N1CCC(c2cc3c(-c4cnn(CC5CC5)c4)c(Cl)cnc3[nH]2)CC1` (stereo not given), the results for the Ratio IC50 in data set [1] and in data set [2] were 107 and 41, respectively. The pIC50 in data set [3] was 7.28.
As for `CC(=O)N[C@@H]1CCC[C@H](C(=O)Nc2cc(-c3cnn4c3CC(C)(C)C4)c(Cl)cn2)C1` [ZEMIRCICLIB], the Vd in data set [4] is 0.52 L/kg. In data set [5], this molecule had a clearance of 78.1 mL/min/kg. For the same molecule, the half-life in data set [6] was 6 min. The same molecule registered an AUC(0-t) in data set [7] of 0.992 µM·h.
With `CN1CCC(c2cc3c(-c4cnn(CC5CC5)c4)c(Cl)cnc3[nH]2)CC1`, the Ratio IC50 in data set [1] was determined as 35.9; in data set [2], 11.2. In addition, the pIC50 in data set [3] was 7.45.
For `c1cc(-c2cnn(CC3CC3)c2)c2cc(C3CCNCC3)[nH]c2n1`, the Ratio IC50 in data set [1] came out at 48.8; in data set [2], 51.8. Also, in data set [3], the pIC50 was 6.60.
As to `Clc1cnc2[nH]c(C3CCNCC3)nc2c1-c1cnn(CC2CC2)c1`, the Ratio IC50 in data set [2] is 35.5. Further, the pIC50 in data set [3] was 6.33.
